Experimental data: US9107918B2, “Method for determining sensitivity to irinotecan and use thereof” (Kabushiki Kaisha Yakult Honsha, priority 2009, dated 2015)
Structures can show the parent of a compound that is named as a salt. Values belong to the compound of their own block, whether it stands above or below them.

Legend:
Format in all cases: cell-based, human
[1] = tested on: myelogenous leukemia cell line K562; test: MTT growth inhibition, K562; conditions: K562 cells, 72 hours drug exposure
Method: (§1) The sensitivity, to irinotecan and SN-38, of the 19 cultured human tumor cell lines which had been subjected to comprehensive gene expression analysis was determined through the MTT (methylthiazol tetrazolium bromide) method. Specifically, 4×10^3 cells/well of each cell line and 80 μL/well of culture medium (10% fetal serum-added RPMI1640 medium) were added to each well of a 96-well microplate (Nunclon; Nunc, Roskilde, Denmark), and culturing was performed for 24 hours in an incubator at 37° C. under 5% CO2. Thereafter, the culture medium (10% fetal serum-added RPMI1640 medium) was renewed, and SN-38 or irinotecan was added thereto at various concentrations. Culturing was further performed for 72 hours in an incubator at 37° C. under 5% CO2. […] By means of a microplate reader (Maxline Microplate Reader, Molecular Devices, Sunnyvale, Calif.), absorbance at 570 to 650 nm was measured. An average absorbance of wells of culture medium was subtracted from the absorbance of each well of the drug-treatment group, and the obtained values of the wells were averaged. Similarly, the average absorbance of wells of culture medium was subtracted from the absorbance of each well of the control group (non-drug-treatment group), and the obtained values of the wells were averaged. […]

[2] = tested on: gastric cancer cell line HSC-42; test: MTT growth inhibition, HSC-42; conditions: HSC-42 cells, 72 hours drug exposure
Method: as §1

[3] = tested on: colon cancer cell line HCC-48; test: MTT growth inhibition, HCC-48; conditions: HCC-48 cells, 72 hours drug exposure
Method: as §1

[4] = tested on: acquired SN-38 resistant cell line PC-6/SN2-5; test: MTT growth inhibition, PC-6/SN2-5; conditions: PC-6/SN2-5 cells, 72 hours drug exposure
Method: as §1

[5] = tested on: squamous cell lung cancer cell line LC-S; test: MTT growth inhibition, LC-S; conditions: LC-S cells, 72 hours drug exposure
Method: as §1

[6] = tested on: oral epithelium epidermal cancer cell line KB; test: MTT growth inhibition, KB; conditions: KB cells, 72 hours drug exposure
Method: as §1

[7] = tested on: lung adenocarcinoma cell line PC-14; test: MTT growth inhibition, PC-14; conditions: PC-14 cells, 72 hours drug exposure
Method: as §1

[8] = tested on: small-cell lung cancer cell line PC-6; test: MTT growth inhibition, PC-6; conditions: PC-6 cells, 72 hours drug exposure
Method: as §1

[9] = tested on: lung adenocarcinoma cell line A549; test: MTT growth inhibition, A549; conditions: A549 cells, 72 hours drug exposure
Method: as §1

[10] = tested on: colon cancer cell line COLO320DM; test: MTT growth inhibition, COLO320DM; conditions: COLO320DM cells, 72 hours drug exposure
Method: as §1

[11] = tested on: acquired CDDP resistant cell line PC-14/CDDP; test: MTT growth inhibition, PC-14/CDDP; conditions: PC-14/CDDP cells, 72 hours drug exposure
Method: as §1

[12] = tested on: acquired CPT-11 resistant cell line PC-6/DQ2-2; test: MTT growth inhibition, PC-6/DQ2-2; conditions: PC-6/DQ2-2 cells, 72 hours drug exposure
Method: as §1

[13] = tested on: acquired multidrug resistant cell line K562/DOX; test: MTT growth inhibition, K562/DOX; conditions: K562/DOX cells, 72 hours drug exposure
Method: as §1

[14] = tested on: gastric cancer cell line MKN45; test: MTT growth inhibition, MKN45; conditions: MKN45 cells, 72 hours drug exposure
Method: as §1

[15] = tested on: colon cancer cell line COLO201; test: MTT growth inhibition, COLO201; conditions: COLO201 cells, 72 hours drug exposure
Method: as §1

[16] = tested on: acquired CDDP (cisplatin) resistant cell line PC-9/CDDP; test: MTT growth inhibition, PC-9/CDDP; conditions: PC-9/CDDP cells, 72 hours drug exposure
Method: as §1

[17] = tested on: colon cancer cell line HCC-50; test: MTT growth inhibition, HCC-50; conditions: HCC-50 cells, 72 hours drug exposure
Method: as §1

[18] = tested on: lung adenocarcinoma cell line PC-9; test: MTT growth inhibition, PC-9; conditions: PC-9 cells, 72 hours drug exposure
Method: as §1

[19] = tested on: esophageal cancer cell line HEC-46; test: MTT growth inhibition, HEC-46; conditions: HEC-46 cells, 72 hours drug exposure
Method: as §1

[20] = Homo sapiens, read-out: 50% Growth inhibitory concentration (IC50) determined by MTT method

SMILES: CCc1c2c(nc3ccc(O)cc13)-c1cc3c(c(=O)n1C2)COC(=O)[C@]3(O)CC [SN-38, 7-ethyl-10-hydroxycamptothecin]
50% Growth inhibitory concentration (IC50) determined by MTT method [1]: 0.00284 µg/mL
50% Growth inhibitory concentration (IC50) determined by MTT method [2]: 0.00281 µg/mL
50% Growth inhibitory concentration (IC50) determined by MTT method [3]: 0.00199 µg/mL
50% Growth inhibitory concentration (IC50) determined by MTT method [4]: 0.0244 µg/mL
50% Growth inhibitory concentration (IC50) determined by MTT method [5]: 0.13707 µg/mL
50% Growth inhibitory concentration (IC50) determined by MTT method [6]: 0.00526 µg/mL
50% Growth inhibitory concentration (IC50) determined by MTT method [7]: 0.01116 µg/mL
50% Growth inhibitory concentration (IC50) determined by MTT method [8]: 0.00291 µg/mL
50% Growth inhibitory concentration (IC50) determined by MTT method [9]: 0.02523 µg/mL
50% Growth inhibitory concentration (IC50) determined by MTT method [10]: 0.00343 µg/mL
50% Growth inhibitory concentration (IC50) determined by MTT method [11]: 0.00626 µg/mL
50% Growth inhibitory concentration (IC50) determined by MTT method [12]: 0.09735 µg/mL
50% Growth inhibitory concentration (IC50) determined by MTT method [13]: 0.0041 µg/mL
50% Growth inhibitory concentration (IC50) determined by MTT method [14]: 0.0026 µg/mL
50% Growth inhibitory concentration (IC50) determined by MTT method [15]: 0.00284 µg/mL
50% Growth inhibitory concentration (IC50) determined by MTT method [16]: 0.00905 µg/mL
50% Growth inhibitory concentration (IC50) determined by MTT method [17]: 0.02227 µg/mL
50% Growth inhibitory concentration (IC50) determined by MTT method [18]: 0.00817 µg/mL
50% Growth inhibitory concentration (IC50) determined by MTT method [19]: 0.03482 µg/mL

IC50 [1, 20]: 2.3 µg/mL
IC50 [2, 20]: 0.743 µg/mL
IC50 [3, 20]: 1.11 µg/mL
IC50 [5, 20]: 18.9 µg/mL
IC50 [6, 20]: 2.23 µg/mL
IC50 [7, 20]: 4.67 µg/mL
IC50 [8, 20]: 0.691 µg/mL
IC50 [9, 20]: 5.63 µg/mL
IC50 ([10]; Homo sapiens, COLO 320DM, read-out: 50% Growth inhibitory concentration (IC50) determined by MTT method): 1.78 µg/mL
IC50 [13, 20]: 3.93 µg/mL
IC50 ([14]; Homo sapiens, MKN-45, read-out: 50% Growth inhibitory concentration (IC50) determined by MTT method): 0.809 µg/mL
IC50 ([15]; Homo sapiens, COLO 201, read-out: 50% Growth inhibitory concentration (IC50) determined by MTT method): 0.979 µg/mL
IC50 [16, 20]: 2.68 µg/mL
IC50 [18, 20]: 2.75 µg/mL
IC50 [19, 20]: 7.79 µg/mL
SMILES: CCc1c2c(nc3ccc(OC(=O)N4CCC(N5CCCCC5)CC4)cc13)-c1cc3c(c(=O)n1C2)COC(=O)[C@]3(O)CC [Irinotecan, Irinotecan hydrochloride]
IC50 [4, 20]: 2.85 µg/mL
IC50 [11, 20]: 4.03 µg/mL
IC50 [12, 20]: 4.26 µg/mL
IC50 [17, 20]: 5.11 µg/mL
